In brackets after ≈: the same amount, converted by molar mass. Several values for one entry are separate records, joined by “and”; a condition that tells them apart may be missing. Identical values can stand only once.
Assays:
HDAC activity = experiment: H2O2-induced reduction of HDAC activity in PMA-differentiated U937 cells; format: cell-based, human; settings: for restoration of H2O2-reduced HDAC activity (%): test concentration not given, bracketed second value not explained
Description: In cell HDAC assay. Cells are incubated with Fluor de Lys™ substrate for 1 hr before lyses. Total HDAC activity from whole cell extracts is measured using the HDAC Fluorimetric Assay/Drug Discovery Kit (BIOMOL® International, Inc., Plymouth Meeting, Pa.).
HDAC expression: In cell HDAC activity assay: U937 is differentiated to macrophage type cells by PMA for 3 days. HDAC fluorescent substrate (Biomol) is added before exposure of oxidative stress (H2O2, 200 μM) or Tobacco smoke conditioned medium for 4 hrs. HDAC activity is measured (Biomol kit). Compounds at different concentrations are treated 20 min before oxidative stress treatment.
PMA-differentiated macrophage-like cells are pretreated with compounds described herein for 20 min. After H2O2 (200 μM) stimulation for 4 hrs, HDAC activity is assayed. Data are expressed as fold changes against positive control treated with H2O2 only. Values represent means of four experiments±SEM.

IL-8 = experiment: LPS-induced IL-8 release in PMA-differentiated U937 cells (ELISA); format: cell-based, human; settings: test concentration not given
Description: (§1) Cytokine ELISA. LPS-induced IL-8, TNFα concentrations and TNFα-induced IL-8 concentrations are determined by sandwich ELISA according to the manufacturer's instructions (R&D Systems Europe). IC50 values for dexamethasone on IL-8 production are calculated using the computer program Prism 4.0 (GraphPad Software Inc., San Diego, Calif.) as a marker for steroid sensitivity.
(§2) Effects of compounds on LPS-induced IL-8 and TNFα release in PMA-differentiated U937 cells. PMA-differentiated macrophage-like cells are pretreated with compounds described herein for 1 hr, followed by LPS (100 ng/ml) stimulation for 4 hrs. LPS-induced IL-8 and TNFα release is evaluated by ELISA. Values represent means of three experiments±SEM.

TNFα = experiment: LPS-induced TNFα release in PMA-differentiated U937 cells (ELISA); format: cell-based, human; settings: test concentration not given
Description: as §1, §2

MMP9 = experiment: PMA-induced MMP9 expression in U937 cells (gelatin zymography); format: cell-based, human; settings: for MMP9 inhibition (%): test concentration not given, bracketed second value not explained
Description: Zymography. MMP9 enzyme activity is measured by gelatin zymography. 5 μl of supernatants were diluted with 5 μl Laemli sample buffer (Bio-Rad) and are loaded on a Novex® 10% Zymogram (Gelatin) gel (Invitrogen). After electrophoresis (90 min, 125 V, 35 mA, 5 W) gels are incubated with 1× Novex® zymogram renaturing buffer (Invitrogen) for 30 min at room temperature with gentle agitation. Gels are then rinsed in 1× Novex® zymogram developing buffer (Invitrogen) for 30 min at room temperature with gentle agitation prior to overnight incubation in the developing buffer at 37° C. After incubation the gels are stained using the colloidal blue staining kit (Invitrogen) with buffer containing 20% methanol and 70% distilled water to visualize the zymogen bands. Relevant band intensities are quantified by densitometric analysis using the UVP GelDoc-It system.
Effects of compounds on PMA-induced MMP9 expression in U937 cells. U937 cells are pretreated with compounds described herein for 1 hr, followed by PMA (50 ng/ml) treatment for 48 hrs. After 48 hrs supernatants are collected for zymography. MMP9 enzyme activity is measured by gelatin zymography. Data are expressed as fold changes against positive control treated with PMA only. Values represent means of three experiments±SEM.

[1] = format: cell-based; settings: test concentration not given
Description: The human monocytic cell line U937 and the human type II alveolar epithelial carcinoma cell line A549 were obtained from the American Type Culture Collection (ATCC, Rockville, Md.). PBMCs from COPD patients were obtained in Brompton hospital and separated by AccuSPIN (Sigma-Aldrich, Poole, UK). Cells were cultured in complete growth medium (Sigma-Aldrich) (RPMI 1640 for U937, PBMCs, and Dulbecco's modified essential medium (DMEM) for A549) supplemented with 10% fetal bovine serum (FBS) and 1% L-glutamine at 37° C. in a humidified atmosphere with 5% CO2. U937 were differentiated into an adherent macrophage-like morphology by exposure to PMA (50 or 100 ng/ml) for 48 hrs in complete growth medium. Cell viability was assessed microscopically by trypan blue staining. Cell toxicity was determined by MTT assay as needed. This study was approved by the ethics committee of the Royal Brompton Hospitals, and all subjects gave written informed consent.

K. pneumonia 13883 = experiment: MIC; format: cell-based; settings: in µg/mL
H. influenzae ATCC 49247 = experiment: MIC; format: cell-based
H. influenzae LC002 = experiment: MIC; format: cell-based
S. pneumoniae ATCC 49619 = experiment: MIC; format: cell-based
S. pneumoniae 163 (MefA) = experiment: MIC; format: cell-based; settings: in µg/mL
S. pneumoniae 303 (ErmB) = experiment: MIC; format: cell-based
[2] = system: S. aureus ATCC 29213 (MSSA) MLS-S; experiment: MIC; format: cell-based
S. aureus MRSA 33591 = experiment: MIC; format: cell-based
[3] = system: S. aureus 96:11480 (MLS-I); experiment: MIC; format: cell-based; set-up: unit not given beside the values
S. pyogenes ATCC 19615 = experiment: MIC; format: cell-based; settings: in µg/mL
E. faecium ATCC 19434 = experiment: MIC; format: cell-based
E. coli ATCC 25922 = experiment: MIC; format: cell-based; settings: in µg/mL
[4] = system: S. typhimurium ATCC 14028; experiment: MIC; format: cell-based; settings: in µg/mL

Compound	restoration of H2O2-reduced HDAC activity (%) (HDAC activity)	IL-8 inhibition (%) (IL-8)	TNFα inhibition (%) (TNFα)	MMP9 inhibition (%) (MMP9)	Cell Toxicity (% cell death) [1] [%]	MIC K. pneumonia 13883 (K. pneumonia 13883)	MIC H. influenzae ATCC 49247 (H. influenzae ATCC 49247) [µg/mL]	MIC H. influenzae LC002 (H. influenzae LC002) [µg/mL]	MIC S. pneumoniae ATCC 49619 (S. pneumoniae ATCC 49619) [µg/mL]	MIC S. pneumoniae 163 (MefA) (S. pneumoniae 163 (MefA))	MIC S. pneumoniae 303 (ErmB) (S. pneumoniae 303 (ErmB)) [µg/mL]	MIC S. aureus ATCC 29213 (MSSA) MLS-S [2] [µg/mL]	MIC S. aureus MRSA 33591 (S. aureus MRSA 33591) [µg/mL]	MIC S. aureus 96:11480 (MLS-I) [3]	MIC S. pyogenes ATCC 19615 (S. pyogenes ATCC 19615)	MIC E. faecium ATCC 19434 (E. faecium ATCC 19434) [µg/mL]	concentration at which the H2O2-induced reduction in HDAC activity is restored (HDAC activity; PMA-differentiated U937, pretreated 20 min, H2O2 200 μM 4 hrs) [µM]	concentration at which PMA-induced MMP9 up-regulation is inhibited (MMP9; U937, pretreated 1 hr, PMA 50 ng/ml 48 hrs) [µM]	MIC E. coli ATCC 25922 (E. coli ATCC 25922)	MIC S. typhimurium ATCC 14028 [4]
CC[C@H]1OC(=O)[C@H](C)C(=O)[C@H](C)[C@@H](O[C@@H]2O[C@H](C)[C@@H](OC(C)=O)[C@H](NC(C)=O)[C@H]2OC(C)=O)[C@@](C)(OC)C[C@@H](C)C(=O)[C@H](C)[C@H]2N(CCCCn3cc(-c4ccccn4)nn3)C(=O)O[C@]12C [Example 23]	−13%	13	76	32 (31) %	9	>64	> 64	> 64	4 (≈ 4.31 µM)	2	16 (≈ 17.3 µM)	> 64	> 64	>64	16	16 (≈ 17.3 µM)	–	–	–	–
CCC1OC(=O)C(C)C(=O)C(C)C(OC2OC(C)CC(N(C)C)C2O)C(C)(OC)CC(C)C(=O)C(C)C2N(CCCCN)C(=O)OC12C (stereo not drawn) [Example 1]	68 (53) %	72	73	55 (43) %	6	>64	> 64	> 64	≤ 0.125	0.5 and 1	> 64	8 (≈ 11.7 µM)	> 64	8	0.25 and 0.5	4 (≈ 5.85 µM)	≥ 100	≥ 300	>64	>64

— patent US9937194B1, “Compounds and methods for treating inflammatory diseases” (priority 2009, dated 2018)
